The test system of the assay is Ovarian cancer SW756 cells. The assay is described as follows: Cancer cell viability assay with 3D cell colonies (CellTiter-Glo), SW756. The assay is classed as cell-based. The settings on record: Homo sapiens, 168 h; SW756, 3D methylcellulose colonies, 7 days. The procedure: Cancer cell lines were cultured in the following media: • Ovarian cancer OVCAR-8 cells—RPMI media containing 10% FBS • Ovarian cancer SK-OV-3 cells—McCoy's 5a media containing 10% FBS • Ovarian cancer SW756 cells—L-15 (100% air)+10% FBS • Esophageal cancer TE-1 cells—RPMI-1640+10% FBS • Esophageal cancer KYSE-410 cells—RPMI-1640+5˜10% FBS • Esophageal cancer KYSE-70 cells—RPMI-1640+10% h.i.FBS. • Pharyngeal cancer FaDu cells—MEM+0.01 mM NEAA+10% FBS
Cell colony formation was tested using a 3D methylcellulose-based CellTiter-Glo (CTG) viability assay (Cat. No: G7573, Promega). Briefly, cells were inoculated into 96-well plates (at 1,500 cells per well) into a solution of 0.65% methylcellulose in growth media and incubated overnight at 37° C. in 5% CO2. The next day, serially diluted test compound (islatravir, 4′-ethynyl-2-fluoro-2′-deoxyadenosine) or positive control (cisplatin, Cat. No. 6J015A89, Qilu Pharma) were added at the indicated concentrations, and the cells were incubated for 7 days. On day seven, 100 μL of CTG reagent was added, and the plates were incubated at room temperature for 20 min. Luminescence was read on an Envision Multi Label Reader according to manufacturer's instructions. IC50 values were determined using the following calculation: […]
(Cellular ATP, detected with luciferase, serves as a proxy for viable cell number.)

Structures are written as SMILES. pIC50: −log10 of the molar value.

The term pIC50 denotes −log10 of the IC50, conventionally taken in molar units. Low readings indicate a large IC50, high ones a small IC50. For `C#C[C@]1(CO)O[C@@H](n2cnc3c(N)nc(F)nc32)C[C@@H]1O` [islatravir, 4′-ethynyl-2-fluoro-2′-deoxyadenosine], the pIC50 is under 4.52.

The values above are taken from patent publication US20240366649A1, “4-ETHYNYL-3-HYDROXY-TETRAHYDROFURANYL-ADENINE PHOSPHORAMIDATES AND RELATED COMPOUNDS AND THEIR USE IN TREATING MEDICAL CONDITIONS” (ROME THERAPEUTICS, INC., priority 2021, published 2024).
